Biological target: Protein phosphatase 1 catalytic subunit (PP1)
Assay: Inhibitory activity against recombinant Protein phosphatase 1

CCOC(=O)C1C(C(=O)O)[C@@H]2CC[C@H]1O2 (stereo partly drawn) [(1R,4S)-7-Oxa-bicyclo[2.2.1]heptane-2,3-dicarboxylic acid monoethyl ester]
IC50: 2.96 µM

COC1OC(=O)[C@H]2[C@@H]1[C@@H]1CC[C@H]2O1 (stereo partly drawn) [(1R,2S,6R,7S)-5-Methoxy-4,10-dioxa-tricyclo[5.2.1.0*2,6*]decan-3-one]
IC50: > 1000 µM

From BindingDB's records for doi:10.1016/s0960-894x(00)00323-1 (The University of Newcastle, 2000)
